Assay results published in patent publication US6984499B2, “Method and apparatus for concurrently detecting pathogenic organisms and antimicrobial susceptibility” (IDEXX Laboratories, Inc., priority 1997, dated 2006).

Legend:
[1] = system: gram negative urinary pathogens (Escherichia coli, Klebsiella spp, Enterobacter spp., Proteus spp.); assay: AMO medium (amoxicillin) in urinary tract infection device; type: cell-based, feline and canine urine specimens
Method: The medium is formulated according to techniques well known to those skilled in the art. The medium comprises UTI media with amoxicillin at a concentration of 8 mg/liter.
A total of 303 feline and canine urine specimens were collected from the animals suspected of having urinary tract infection were tested with the “AMO” medium. A 50 μl aliquot of the urine specimen was added to 10 ml of sterile saline solution (0.85% NaCl solution). A 100 μl of the diluted urine specimens were added to the “AMO” medium in the urinary tract infection device; the device was then incubated at 35° C. for 24 hours.

[2] = system: gram negative urinary pathogens (Escherichia coli, Klebsiella spp, Enterobacter spp., Proteus spp.); assay: standard Kirby-Bauer antimicrobial susceptibility assay, amoxicillin; type: cell-based, feline and canine urine specimens; conditions: Total of 58
Method: For comparison a traditional microbiological culture, bacterial identification technique, and antimicrobial susceptibility test were performed. A portion of 1 μl urine specimen was streaked onto a blood agar plate; the plate was then incubated at 35° C. for 24–48 hours. […] The susceptibility of amoxicillin of the gram negative urinary pathogens (Escherichia coli, Klebsiella spp, Enterobacter supp., and Proteus spp.) Were performed by standard Kirby-Bauer antimicrobial susceptibility assay.

[3] = system: primary gram negative uropathogens; assay: five-well device (TVB, UTI, AMO, AMC, ENR wells), fluorescence, four urine samples; type: cell-based; conditions: Sample 2; incubation 18 hours
Text: In a presently preferred embodiment, this invention comprises a device having a series of 5 test wells. Each well comprises a specific medium coupled with a fluorogenic enzyme substrate for the detection of target bacteria and their respective antibiotic resistance patterns. The wells produce a fluorescent signal when bacteria grow in them.
The wells were termed a total viable bacteria “TVB” well, a primary gram negative urinary tract infection organisms “UTI” well, and individual wells which contain an antimicrobial susceptibility media with an antibiotic amoxicillin “AMO”, clavulanic acid/amoxicillin (Clavamox®) “AMC”, or enrofloxacin (Baytril®) “ENR”.
The total viable bacteria “TVB” well, when it fluoresces, indicates the presence of bacteria in the urine sample. The “UTI” well fluoresces when the common Gram-negative uropathogens (E. coli, Klebsiella or Enterobacter spp., and P. mirabilis) are present in the urine sample. […]
For each device, after an incubation period of 18 hours, the wells were examined for the development of fluorescence and conclusions about the presence of primary urinary pathogens and their susceptibility to the antimicrobial agents employed were drawn.

[4] = system: Klebsiella pneumoniae; assay: standard Muller Hinton broth (MHB) microdilution susceptibility; type: cell-based; conditions: K. pneumoniae
Method: (§1) The representative primary gram negative urinary pathogens including Escherichia coli ATCC 25922, Klebsiella pneumoniae, Enterobacter cloacae ATCC 13047, and Proteus mirabilis were used to determine the antimicrobial efficacy of cephalothin in CR 30 medium in reaction to the standard Muller Hinton microdilution antimicrobial susceptibility ((NCCLS Antimicrobial Susceptibility Testing/SC3, January, 1996). Cephalothin was prepared in both standard Muller Hinton broth (MHB) and CR30 medium (CR30M) at the following concentrations: 128, 64, 32, 16, 8, 4, 2, and 0 mg/liter. Bacterial inocula used for each level of inoculation were 1–5×10^4 cfu/100 μl. The assays were performed in microliter wells at 35° C. for 18 hours.
(§2) The bacteria are defined as “resistant” to cephalothin if the organism has an MIC of ≧32 μg/ml, as “intermediate resistant” if the MIC is 16 μg/ml, and as “susceptible” if the MIC is 8 μg/ml as determined by the standard Muller Hinton broth (Manual of Clinical Microbiology, 6th ed. 1995; ASM Press).

[5] = system: Enterobacter cloacae ATCC 13047; assay: as above; type: cell-based; conditions: E. cloacae
Method: as §1, §2

[6] = system: Proteus mirabilis; assay: as above; type: cell-based; conditions: P. mirabilis
Method: as §1, §2

[7] = system: Escherichia coli ATCC 25922; assay: as above; type: cell-based; conditions: E. coli
Method: as §1, §2

[8] = system: Klebsiella pneumoniae; assay: CR30 medium (CR30M) microdilution susceptibility; type: cell-based; conditions: K. pneumoniae
Method: (§3) The medium is formulated according to techniques well known to those skilled in the art. The medium comprises the uropathogen specific medium with 32 mg/liter of cephalothin.
as §1, §2

[9] = system: Enterobacter cloacae ATCC 13047; assay: CR30 medium (CR30M) microdilution susceptibility; type: cell-based; conditions: E. cloacae
Method: as §3, §1, §2

[10] = system: Proteus mirabilis; assay: CR30 medium (CR30M) microdilution susceptibility; type: cell-based; conditions: P. mirabilis
Method: as §3, §1, §2

[11] = system: Escherichia coli ATCC 25922; assay: CR30 medium (CR30M) microdilution susceptibility; type: cell-based; conditions: E. coli
Method: as §3, §1, §2

[12] = system: gram negative urinary pathogens (Escherichia coli, Klebsiella spp, Enterobacter spp., Proteus spp.); assay: ENR medium (enrofloxacin) in urinary tract infection device; type: cell-based, feline and canine urine specimens
Method: The medium is formulated according to techniques well known to those skilled in the art. The media comprises UTI media with enrofloxacin (ENR) at a concentration of 2.0 mg/liter.
A total of 303 feline and canine urine specimens were collected from the animals suspected of having urinary tract infection were tested with the “ENR” medium. A 50 μl aliquot of the urine specimen was added to 10 ml of sterile saline solution (0.85% NaCl solution). A 100 μl of the diluted urine specimens was added to the “ENR” medium in the urinary tract infection device; the device was then incubated at 35° C. for 24 hours.

[13] = system: gram negative urinary pathogens (Escherichia coli, Klebsiella spp, Enterobacter spp., Proteus spp.); assay: standard Kirby-Bauer antimicrobial susceptibility assay, enrofloxacin; type: cell-based, feline and canine urine specimens; conditions: Total of 58
Method: For comparison a traditional microbiological culture, bacterial identification technique, and antimicrobial susceptibility test were performed. A portion of 1 μl urine specimen was streaked onto a blood agar plate; the plate was then incubated at 35° C. for 24–48 hours. […] The susceptibility of enrofloxacin of the gram negative urinary pathogens (Escherichia coli, Klebsiella spp, Enterobacter spp., and Proteus spp.) were performed by standard Kirby-Bauer antimicrobial susceptibility assay.

[14] = Susceptible by Kirby-Bauer Assay

Q: With `CC1(C)S[C@@H]2[C@H](NC(=O)[C@H](N)c3ccc(O)cc3)C(=O)N2[C@H]1C(=O)O` [Amoxicillin, amoxicillin] as the compound, how does the “number of specimens Resistant in AMO Medium” value ([1]; Resistant by Kirby-Bauer Assay) read?
A: 21

Q: And the “number of specimens Susceptible in AMO Medium” value ([1]; Resistant by Kirby-Bauer Assay)?
A: 1

Q: What about the “number of specimens Resistant in AMO Medium” value [1, 14] of the same compound?
A: 1

Q: What about the “number of specimens Susceptible in AMO Medium” value [1, 14] of the same compound?
A: 35

Q: And the “number of specimens Resistant in AMO Medium” value ([1]; Total of 58)?
A: 22

Q: What about the “number of specimens Susceptible in AMO Medium” value ([1]; Total of 58) of the same compound?
A: 36

Q: And the “number of specimens Resistant by Kirby-Bauer Assay” value [2]?
A: 22

Q: And the “number of specimens Susceptible by Kirby-Bauer Assay” value [2]?
A: 36

Q: What about the “susceptibility of primary gram negative uropathogens to the antimicrobial agent” value [3] of the same compound?
A: resistant

Q: What does the source list for `CC(=O)OCC1=C(C(=O)O)N2C(=O)[C@@H](NC(=O)Cc3cccs3)[C@H]2SC1` [cephalothin]?
A: categorical susceptibility to cephalothin [4]: susceptible; categorical susceptibility to cephalothin [5]: resistant; categorical susceptibility to cephalothin [6]: susceptible; categorical susceptibility to cephalothin [7]: susceptible; categorical susceptibility to cephalothin [8]: susceptible; categorical susceptibility to cephalothin [9]: resistant; categorical susceptibility to cephalothin [10]: susceptible; categorical susceptibility to cephalothin [11]: susceptible

Q: Which results are given for `CCN1CCN(c2cc3c(cc2F)c(=O)c(C(=O)O)cn3C2CC2)CC1` [Enrofloxacin, enrofloxacin]?
A: number of specimens Resistant in ENR Medium ([12]; Resistant by Kirby-Bauer Assay): 5; number of specimens Susceptible in ENR Medium ([12]; Resistant by Kirby-Bauer Assay): 1; number of specimens Resistant in ENR Medium [12, 14]: 2; number of specimens Susceptible in ENR Medium [12, 14]: 50; number of specimens Resistant in ENR Medium ([12]; Total of 58): 7; number of specimens Susceptible in ENR Medium ([12]; Total of 58): 51; susceptibility of primary gram negative uropathogens to the antimicrobial agent [3]: susceptible; number of specimens Resistant by Kirby-Bauer Assay [13]: 6; number of specimens Susceptible by Kirby-Bauer Assay [13]: 52
